Assay results published in PubChem BioAssay (NCI).
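Each compound was tested at five concentrations against cells in 96-well plates for 48 hours. GI50 is the concentration that inhibits growth by half. TGI marks complete inhibition of growth.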

Assays:
Experiment in all cases: NCI tumour cell line growth inhibition, 48 h
[1] = tested on: HOP-92 NSCLC
[2] = tested on: HL-60(TB) leukemia
[3] = tested on: 786-0 renal
[4] = tested on: A498 renal
[5] = tested on: U251 CNS
[6] = tested on: NCI-H23 lung
[7] = tested on: OVCAR-3 ovarian
[8] = tested on: UACC-257 melanoma
[9] = tested on: HCT-15 colon
[10] = tested on: HS 578T breast

Compound | TGI [1] [µM] | TGI [2] [µM] | TGI [3] [µM] | TGI [4] [µM] | TGI [5] [µM] | TGI [6] [µM] | TGI [7] [µM] | TGI [8] [µM] | TGI [9] [µM] | GI50 [9] [µM] | GI50 [1] [µM] | GI50 [2] [µM] | GI50 [3] [µM] | GI50 [5] [µM] | GI50 [6] [µM] | GI50 [10] [µM] | TGI [10] [µM] | GI50 [7] [µM] | GI50 [8] [µM]
CC1=C(C(=O)Nc2cc(=O)n(C)c(=O)n2C)C(c2cccc([N+](=O)[O-])c2)C(C(=O)Nc2cc(=O)n(C)c(=O)n2C)=C(C)N1 | > 100 | > 100 | > 100 | > 100 | > 100 | > 100 | > 100 | > 100 |  |  |  |  |  |  |  |  |  |  | 
CCOC(=O)N1c2c(ccn2C)-c2ccn(C)c2N1C(=O)OCC | 63.7 | 26.7 | 23.1 | > 100 |  |  | 27.1 |  | 26.5 |  |  |  |  |  |  |  |  |  | 
CC1=C(C(=O)Nc2ccc(Cl)c(Cl)c2)C(c2cccc(Cl)c2)NC(=O)N1 (stereo unspecified) | > 28.7 | > 35.7 | 28.3 |  | 17 | 28.5 | 9.13 | 25.6 | 19.2 | 9.06 | 18.3 | 10.6 | 10.2 | 8.32 | 12.7 | 9.68 | 22.6 | 0.838 | 12.2
O=C(O)NC(c1ccccc1)C(NC(=O)c1ccccc1)c1ccccc1 (stereo unspecified) | > 100 |  | > 100 | > 100 | > 100 | > 100 | > 100 | > 100 | > 100 |  |  |  |  |  |  |  |  |  | 
COc1cc(OC)c(SSCCCCS(=O)O)c(OC)c1 |  | 24.8 | 35.4 | 33.6 | 27.9 | 30.5 | 28.6 | 23.5 | 34.2 |  |  |  |  |  |  |  |  |  | 
C/C=C1\C=C(OC)CN(CCc2c[nH]c3ccccc23)C1 |  | > 100 | > 100 | > 100 |  | > 100 | > 100 | > 100 | > 100 |  |  |  |  |  |  |  |  |  | 
C=CC1CCC[N+]1(CC(=O)OCC)Cc1ccccc1 (stereo unspecified) | > 100 | > 100 | > 100 | > 100 | > 100 | > 100 | > 100 | > 100 | > 100 |  |  |  |  |  |  |  |  |  | 
CC(=O)OC1CCn2nnc(CO)c21 (stereo unspecified) | > 100 |  | > 100 |  | > 100 | > 100 | > 100 | > 100 | > 100 |  |  |  |  |  |  |  |  |  | 
